From the supplement of paper PMC10307832

Tests used:
Assay in all cases: relative viability (nuclei count vs DMSO), 5 days (fraction); higher = more cells survive
[1] = compound: Cc1cc(Nc2cc(N3CCN(C)CC3)nc(Sc3ccc(NC(=O)C4CC4)cc3)n2)n[nH]1 [Tozasertib] + CC(=O)c1c(C)c2cnc(Nc3ccc(N4CCNCC4)cn3)nc2n(C2CCCC2)c1=O [Palbociclib] (partner 0.5 µM)
Outline: (§1)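 Cells from lung cancer lines were seeded into 1536-well plates and, one day later, dosed by pin tool. Treatments were either a single drug or a fixed dose of an anchor drug with five library-drug doses (not always all listed) in √10 steps. After 5 days, nuclei were stained in a one-step fixation (final 0.05% Triton X-100, 1% formaldehyde, 1 ug/ml Hoechst) and counted on 4× images, and relative viability is the treated-to-vehicle nuclei ratio, as the median of duplicate plates.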

[2] = compound: Cc1cc(Nc2cc(N3CCN(C)CC3)nc(Sc3ccc(NC(=O)C4CC4)cc3)n2)n[nH]1 [Tozasertib] + COc1cc2c(Oc3ccc(NC(=O)C4(C(=O)Nc5ccc(F)cc5)CC4)cc3F)ccnc2cc1OCCCN1CCOCC1 [Foretinib] (partner 0.25 µM)
Outline: as §1

[3] = compound: Cc1cc(Nc2cc(N3CCN(C)CC3)nc(Sc3ccc(NC(=O)C4CC4)cc3)n2)n[nH]1 [Tozasertib] + COc1cccc2cc(-c3nc([C@H]4CC[C@H](C(=O)O)CC4)n4ncnc(N)c34)[nH]c12 [OSI-027] (partner 0.5 µM)
Outline: as §1

[4] = compound: Cc1cc(Nc2cc(N3CCN(C)CC3)nc(Sc3ccc(NC(=O)C4CC4)cc3)n2)n[nH]1 [Tozasertib] + CS(=O)(=O)CCNCc1ccc(-c2ccc3ncnc(Nc4ccc(OCc5cccc(F)c5)c(Cl)c4)c3c2)o1 [Lapatinib] (partner 2 µM)
Outline: as §1

[5] = compound: Cc1cc(Nc2cc(N3CCN(C)CC3)nc(Sc3ccc(NC(=O)C4CC4)cc3)n2)n[nH]1 [Tozasertib] + NC(=O)Nc1cc(-c2cccc(F)c2)sc1C(=O)N[C@H]1CCCNC1 [AZD7762] (partner 0.2 µM)
Outline: as §1

## HARA
[1]; first compound 0.004 µM
  relative viability: 0.333
[1]; first compound 0.01265 µM
  relative viability: 0.248
[1]; first compound 0.04 µM
  relative viability: 0.262
[1]; first compound 0.1265 µM
  relative viability: 0.207
[2]; first compound 0.01265 µM
  relative viability: 0.824
[2]; first compound 0.04 µM
  relative viability: 1.03
[2]; first compound 0.1265 µM
  relative viability: 0.145
[3]; first compound 0.004 µM
  relative viability: 0.467
[3]; first compound 0.01265 µM
  relative viability: 0.447
[3]; first compound 0.04 µM
  relative viability: 0.583
[3]; first compound 0.1265 µM
  relative viability: 0.343
[4]; first compound 0.01265 µM
  relative viability: 0.695
[4]; first compound 0.04 µM
  relative viability: 1.02
[4]; first compound 0.1265 µM
  relative viability: 0.246
[5]; first compound 0.004 µM
  relative viability: 0.353
[5]; first compound 0.01265 µM
  relative viability: 0.247
[5]; first compound 0.04 µM
  relative viability: 0.209
[5]; first compound 0.1265 µM
  relative viability: 0.123

## PC-14
[1]; first compound 0.01265 µM
  relative viability: 0.576
[1]; first compound 0.04 µM
  relative viability: 0.526
[1]; first compound 0.1265 µM
  relative viability: 0.474
[2]; first compound 0.004 µM
  relative viability: 0.966
[2]; first compound 0.01265 µM
  relative viability: 1.09
[2]; first compound 0.04 µM
  relative viability: 1.04
[2]; first compound 0.1265 µM
  relative viability: 0.986
[3]; first compound 0.01265 µM
  relative viability: 0.795
[3]; first compound 0.04 µM
  relative viability: 1.06
[3]; first compound 0.1265 µM
  relative viability: 0.523
[4]; first compound 0.004 µM
  relative viability: 0.293
[4]; first compound 0.01265 µM
  relative viability: 0.287
[4]; first compound 0.04 µM
  relative viability: 0.354
[4]; first compound 0.1265 µM
  relative viability: 0.361
[5]; first compound 0.004 µM
  relative viability: 0.31
[5]; first compound 0.01265 µM
  relative viability: 0.236
[5]; first compound 0.04 µM
  relative viability: 0.336
[5]; first compound 0.1265 µM
  relative viability: 0.213

## EPLC-272H
[1]; first compound 0.004 µM
  relative viability: 0.367
[1]; first compound 0.01265 µM
  relative viability: 0.313
[1]; first compound 0.04 µM
  relative viability: 0.318
[1]; first compound 0.1265 µM
  relative viability: 0.356
[2]; first compound 0.004 µM
  relative viability: 0.643
[2]; first compound 0.01265 µM
  relative viability: 0.595
[2]; first compound 0.04 µM
  relative viability: 0.604
[2]; first compound 0.1265 µM
  relative viability: 0.496
[3]; first compound 0.004 µM
  relative viability: 0.289
[3]; first compound 0.01265 µM
  relative viability: 0.256
[3]; first compound 0.04 µM
  relative viability: 0.288
[3]; first compound 0.1265 µM
  relative viability: 0.265
[4]; first compound 0.004 µM
  relative viability: 0.958
[4]; first compound 0.04 µM
  relative viability: 0.891
[5]; first compound 0.004 µM
  relative viability: 0.147
[5]; first compound 0.01265 µM
  relative viability: 0.249
[5]; first compound 0.04 µM
  relative viability: 0.192
[5]; first compound 0.1265 µM
  relative viability: 0.301

## NCI-H1355
[1]; first compound 0.004 µM
  relative viability: 0.362
[1]; first compound 0.01265 µM
  relative viability: 0.424
[1]; first compound 0.04 µM
  relative viability: 0.457
[1]; first compound 0.1265 µM
  relative viability: 0.391
[2]; first compound 0.004 µM
  relative viability: 0.942
[2]; first compound 0.01265 µM
  relative viability: 0.926
[2]; first compound 0.04 µM
  relative viability: 0.901
[2]; first compound 0.1265 µM
  relative viability: 0.853
[3]; first compound 0.004 µM
  relative viability: 0.368
[3]; first compound 0.01265 µM
  relative viability: 0.383
[3]; first compound 0.04 µM
  relative viability: 0.458
[3]; first compound 0.1265 µM
  relative viability: 0.343
[4]; first compound 0.004 µM
  relative viability: 0.934
[4]; first compound 0.01265 µM
  relative viability: 1.02
[4]; first compound 0.04 µM
  relative viability: 0.987
[4]; first compound 0.1265 µM
  relative viability: 0.791
[5]; first compound 0.004 µM
  relative viability: 0.76
[5]; first compound 0.01265 µM
  relative viability: 0.698
[5]; first compound 0.04 µM
  relative viability: 0.77
[5]; first compound 0.1265 µM
  relative viability: 0.661

## NCI-H1944
[1]; first compound 0.004 µM
  relative viability: 0.311
[1]; first compound 0.01265 µM
  relative viability: 0.308
[1]; first compound 0.04 µM
  relative viability: 0.332
[1]; first compound 0.1265 µM
  relative viability: 0.273
[2]; first compound 0.004 µM
  relative viability: 0.876
[2]; first compound 0.01265 µM
  relative viability: 0.753
[2]; first compound 0.04 µM
  relative viability: 0.72
[2]; first compound 0.1265 µM
  relative viability: 0.459
[3]; first compound 0.004 µM
  relative viability: 0.471
[3]; first compound 0.01265 µM
  relative viability: 0.397
[3]; first compound 0.04 µM
  relative viability: 0.422
[3]; first compound 0.1265 µM
  relative viability: 0.247
[4]; first compound 0.004 µM
  relative viability: 0.869
[4]; first compound 0.01265 µM
  relative viability: 0.728
[4]; first compound 0.04 µM
  relative viability: 0.772
[4]; first compound 0.1265 µM
  relative viability: 0.339
[5]; first compound 0.004 µM
  relative viability: 0.403
[5]; first compound 0.01265 µM
  relative viability: 0.479
[5]; first compound 0.04 µM
  relative viability: 0.443
[5]; first compound 0.1265 µM
  relative viability: 0.327

## NCI-H460
[1]; first compound 0.004 µM
  relative viability: 0.172
[1]; first compound 0.01265 µM
  relative viability: 0.18
[1]; first compound 0.04 µM
  relative viability: 0.196
[1]; first compound 0.1265 µM
  relative viability: 0.115
[2]; first compound 0.004 µM
  relative viability: 1.03
[2]; first compound 0.01265 µM
  relative viability: 0.981
[2]; first compound 0.04 µM
  relative viability: 1.01
[2]; first compound 0.1265 µM
  relative viability: 0.504
[3]; first compound 0.004 µM
  relative viability: 0.855
[3]; first compound 0.01265 µM
  relative viability: 0.645
[3]; first compound 0.04 µM
  relative viability: 0.668
[3]; first compound 0.1265 µM
  relative viability: 0.519
[4]; first compound 0.004 µM
  relative viability: 0.968
[4]; first compound 0.01265 µM
  relative viability: 0.842
[4]; first compound 0.04 µM
  relative viability: 1.01
[4]; first compound 0.1265 µM
  relative viability: 0.0247
[5]; first compound 0.004 µM
  relative viability: 0.548
[5]; first compound 0.01265 µM
  relative viability: 0.657
[5]; first compound 0.04 µM
  relative viability: 0.737

## NCI-H322M
[1]; first compound 0.01265 µM
  relative viability: 0.515
[1]; first compound 0.04 µM
  relative viability: 0.466
[1]; first compound 0.1265 µM
  relative viability: 0.486
[2]; first compound 0.01265 µM
  relative viability: 0.941
[2]; first compound 0.04 µM
  relative viability: 1.02
[2]; first compound 0.1265 µM
  relative viability: 0.47
[3]; first compound 0.004 µM
  relative viability: 0.546
[3]; first compound 0.01265 µM
  relative viability: 0.502
[3]; first compound 0.04 µM
  relative viability: 0.561
[3]; first compound 0.1265 µM
  relative viability: 0.412
[4]; first compound 0.004 µM
  relative viability: 0.594
[4]; first compound 0.01265 µM
  relative viability: 0.538
[4]; first compound 0.04 µM
  relative viability: 0.614
[4]; first compound 0.1265 µM
  relative viability: 0.519
[5]; first compound 0.004 µM
  relative viability: 0.497
[5]; first compound 0.01265 µM
  relative viability: 0.507
[5]; first compound 0.04 µM
  relative viability: 0.572
[5]; first compound 0.1265 µM
  relative viability: 0.48

## NCI-H1666
[1]; first compound 0.004 µM
  relative viability: 0.644
[1]; first compound 0.01265 µM
  relative viability: 0.62
[1]; first compound 0.04 µM
  relative viability: 0.663
[1]; first compound 0.1265 µM
  relative viability: 0.612
[2]; first compound 0.004 µM
  relative viability: 0.978
[2]; first compound 0.01265 µM
  relative viability: 0.879
[2]; first compound 0.04 µM
  relative viability: 0.97
[2]; first compound 0.1265 µM
  relative viability: 0.762
[3]; first compound 0.004 µM
  relative viability: 0.859
[3]; first compound 0.04 µM
  relative viability: 0.814
[3]; first compound 0.1265 µM
  relative viability: 0.765
[4]; first compound 0.004 µM
  relative viability: 0.61
[4]; first compound 0.01265 µM
  relative viability: 0.489
[4]; first compound 0.04 µM
  relative viability: 0.578
[4]; first compound 0.1265 µM
  relative viability: 0.298
[5]; first compound 0.004 µM
  relative viability: 0.941
[5]; first compound 0.01265 µM
  relative viability: 0.761
[5]; first compound 0.04 µM
  relative viability: 0.903
[5]; first compound 0.1265 µM
  relative viability: 0.671
